Test results published in ChEMBL document CHEMBL5126652, “Boron-Containing Pyrazole Compounds as JAK Inhibitors for Treating Inflammation, Autoimmune Diseases, and Cancer” (ACS Med Chem Lett, 2022).

Target: Tyrosine-protein kinase JAK1 (Homo sapiens, UniProt P23458)
Assay: Inhibition of JAK1 (unknown origin) preincubated for 20 mins followed by 33P-ATP addition and measured after 2 hrs by filter binding assay

Chain of Tyrosine-protein kinase JAK1 (P23458 whole entry): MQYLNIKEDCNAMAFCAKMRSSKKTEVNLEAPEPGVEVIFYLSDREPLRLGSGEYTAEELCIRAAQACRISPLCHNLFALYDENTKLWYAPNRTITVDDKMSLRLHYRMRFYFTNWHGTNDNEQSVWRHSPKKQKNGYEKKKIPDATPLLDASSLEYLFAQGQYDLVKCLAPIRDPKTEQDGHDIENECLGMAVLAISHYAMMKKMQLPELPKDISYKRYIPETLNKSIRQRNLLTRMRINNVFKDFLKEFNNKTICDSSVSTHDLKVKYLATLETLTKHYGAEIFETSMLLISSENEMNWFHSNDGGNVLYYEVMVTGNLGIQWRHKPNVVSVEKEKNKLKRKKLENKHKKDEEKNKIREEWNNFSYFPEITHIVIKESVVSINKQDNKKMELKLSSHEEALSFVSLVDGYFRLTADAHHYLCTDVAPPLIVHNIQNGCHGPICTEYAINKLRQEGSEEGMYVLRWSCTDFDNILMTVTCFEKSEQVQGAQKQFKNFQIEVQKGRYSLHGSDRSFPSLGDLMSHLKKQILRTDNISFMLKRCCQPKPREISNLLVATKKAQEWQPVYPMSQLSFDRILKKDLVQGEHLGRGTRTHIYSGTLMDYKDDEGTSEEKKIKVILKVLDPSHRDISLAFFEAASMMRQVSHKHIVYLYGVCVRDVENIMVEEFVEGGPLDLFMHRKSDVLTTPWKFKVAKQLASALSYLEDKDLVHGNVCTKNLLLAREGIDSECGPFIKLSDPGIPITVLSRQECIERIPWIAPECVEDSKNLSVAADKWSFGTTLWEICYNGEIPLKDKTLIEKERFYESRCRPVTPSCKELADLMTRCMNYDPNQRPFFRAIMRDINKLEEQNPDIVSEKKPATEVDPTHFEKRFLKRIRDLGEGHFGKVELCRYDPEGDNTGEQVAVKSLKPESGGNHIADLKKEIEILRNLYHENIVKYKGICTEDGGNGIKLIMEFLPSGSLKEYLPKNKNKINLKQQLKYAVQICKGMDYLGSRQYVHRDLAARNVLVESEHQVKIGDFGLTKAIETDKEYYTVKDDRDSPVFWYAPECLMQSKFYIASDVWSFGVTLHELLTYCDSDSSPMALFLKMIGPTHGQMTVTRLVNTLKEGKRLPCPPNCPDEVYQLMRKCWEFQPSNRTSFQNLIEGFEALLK

IC50	Compound
< 10 nM	N#CC1CCCC1n1cc(C(N)=O)c(Nc2ccc3c(c2)C=CB(O)O3)n1 (stereo unspecified)
< 10 nM	N#CC1CCOCC1n1cc(C(N)=O)c(Nc2ccc3c(c2)C2CC2B(O)O3)n1 (stereo unspecified)
< 10 nM	N#CC1CCOCC1n1cc(C(N)=O)c(Nc2ccc3c(c2)C(Cl)=CB(O)O3)n1 (stereo unspecified)
< 10 nM	N#CC1CCCC1n1cc(C(N)=O)c(Nc2ccc3c(c2)COB3O)n1 (stereo unspecified)
< 10 nM	N#CC1CCOCC1n1cc(C(N)=O)c(Nc2cc(Cl)c3c(c2)COB3O)n1 (stereo unspecified)
< 10 nM	N#CC1CCOCC1n1cc(C(N)=O)c(Nc2cc(F)c3c(c2)COB3O)n1 (stereo unspecified)
